Test results published in patent US20260083702A1, “INHALATION FORMULATION FOR TREATING IPF DISEASE AND PREPARATION METHOD THEREFOR” (SUZHOU INHAL PHARMA CO., LTD., priority 2023, published 2026).

Legend:
[1] = tested on: mice with pulmonary fibrosis; assay: HE staining of lungs in bleomycin pulmonary fibrosis model (Experimental Example 4); type: in vivo, C57/BL6J mice; conditions: FIG. 8; for alveolar structure (HE staining): compared with the model group
Source text: (§1) Establishment of pulmonary fibrosis model: 6-8 week old C57/BL6J mice were selected and acclimatized for one week. The mice were divided into blank control group, model group, apremilast inhalation (Example 2) treatment group, roflumilast inhalation (Example 5) treatment group, crisaborole inhalation (Example 3) treatment group, ibudilast inhalation (Example 10) treatment group, difamilast inhalation (Example 9) treatment group, ibudilast oral administration (Comparative Example 3) treatment group, difamilast oral administration (Comparative Example 4) treatment group, and nintedanib oral administration (Comparative Example 2, nintedanib is a commonly used drug for treating IPF in the prior art) treatment group, with n=8 in each group. On the first day, the mice in the model group and the treatment groups were administered bleomycin solution (3 mg/kg/50 μl) via tracheal instillation, while the control group was treated with an equal volume of physiological saline. Treatment began in each treatment group one week later and lasted for two weeks, and a total of three weeks was required. The bleomycin solution was prepared by mixing bleomycin dry powder with sterile PBS to reach the required concentration (non-surgical method of intratracheal injection of bleomycin into mouse lungs: the mice were anesthetized by inhaling isoflurane, and suspended on a surgical stent at a 70° angle, and bleomycin was administered via intratracheal instillation using a 200 μl pipette).
(§2) HE staining and MASSON staining: Mouse lung tissue was fixed in 4% paraformaldehyde for 24 h, rinsed with running water overnight, dehydrated with alcohol as usual, embedded in paraffin, then serially cut into sections (5 μm), and stained with HE and MASSON respectively. After clearing with xylene, the sections were mounted with neutral resin. The sections were observed and photographed under an optical microscope.

[2] = tested on: mice with pulmonary fibrosis; assay: HE staining of lungs in bleomycin pulmonary fibrosis model (Experimental Example 2); type: in vivo, C57BL6J mice; conditions: FIG. 3; for alveolar structure (HE staining): compared with the model group
Source text: (§3) Establishment of pulmonary fibrosis model: 6-8 week old C57BL6J mice were selected and acclimatized for one week. In the model group, apremilast inhalation (Example 2) treatment group, roflumilast inhalation (Example 5) treatment group, crisaborole inhalation (Example 3) treatment group, apremilast oral administration treatment group (Comparative Example 1), and nintedanib oral administration treatment group (Comparative Example 2, nintedanib is a commonly used drug for treating IPF in the prior art), the animals were treated with bleomycin solution (3 mg/kg/50 μl) via intratracheal instillation on the first day, and in the control group, the animals were treated with an equal volume of physiological saline. Treatment started one week later and lasted for two weeks, and a total of three weeks was required. The bleomycin solution was prepared by mixing bleomycin dry powder with sterile PBS to reach the required concentration (non-surgical method of intratracheal injection of bleomycin into mouse lungs: the mice were anesthetized with isoflurane and suspended on a surgical stent at a 70° angle. Bleomycin was administered via intratracheal instillation using a 200 μl pipette).
as §2, with “alcohol conventionally,” for “alcohol as usual,”, “paraffin,” for “paraffin, then serially”, “into 5 μm sections,” for “into sections (5 μm),”, “The pathological changes in the lungs” for “The sections”

[3] = tested on: mice with pulmonary fibrosis; assay: MASSON staining of lungs in bleomycin pulmonary fibrosis model (Experimental Example 4); type: in vivo, C57/BL6J mice; conditions: FIG. 7; for collagen fibers / collagen deposition (MASSON staining): compared with the model group; for lung damage / pathological changes (MASSON staining): inhalation groups compared with model group, oral groups compared with inhalation groups
Source text: as §1, §2

[4] = tested on: mice with pulmonary fibrosis; assay: Detection of MDA and HYP content in the lungs, bleomycin pulmonary fibrosis model (Experimental Example 4); type: in vivo, C57/BL6J mice; conditions: compared with model group; FIG. 9
Source text: as §1
(§4) Detection of malondialdehyde (MDA) and hydroxyproline (HYP) content in the lungs: An appropriate amount of lung tissue was taken from the mice in each group, homogenized (the ground tissue was centrifuged at 3000 rpm for 10 min and the supernatant was taken for later use), and the MDA and HYP content in the lungs was detected according to the kit instructions (MDA stands for malondialdehyde, a product of lipid peroxidation that reflects oxidative damage; HYP (hydroxyproline) level reflects the degree of fibrotic deposition in the lungs).
(§5) Statistical analysis: The results were statistically analyzed using Graphpad Prism 9.0 software for the experimental data of each group. All experimental data underwent normality test. The measurement data were expressed as mean±standard deviation (mean±SD). One-way ANOVA was used to compare the means of multiple groups of samples. P<0.05 is considered statistically significant.

[5] = tested on: mice with pulmonary fibrosis; assay: Weight measurement in bleomycin pulmonary fibrosis model (Experimental Example 4); type: in vivo, C57/BL6J mice; conditions: FIGS. 5 and 6
Source text: as §1
(§6) Weight measurement: The weight of mice was measured and recorded at a fixed time on the morning each week, and the weight changes of mice in each group at different times were observed.
as §5

[6] = tested on: mice with pulmonary fibrosis; assay: Detection of MDA and HYP content in the lungs, bleomycin pulmonary fibrosis model (Experimental Example 2); type: in vivo, C57BL6J mice; conditions: compared with model group; FIG. 4
Source text: as §3
as §4, with “instructions. MDA” for “instructions (MDA”, “damage, while” for “damage;”, “stands for hydroxyproline level, which” for “(hydroxyproline) level”, “level” for “degree”, “pulmonary fibrosis.” for “fibrotic deposition in the lungs).”
as §5, with “mean #standard” for “mean±standard”

[7] = tested on: mice with pulmonary fibrosis; assay: Weight measurement in bleomycin pulmonary fibrosis model (Experimental Example 2); type: in vivo, C57BL6J mice; conditions: compared with the model group; bleomycin 3 mg/kg intratracheal, treatment from week 1 for two weeks; FIG. 1
Source text: as §3, with “The bleomycin solution was prepared by mixing bleomycin dry powder with sterile PBS to reach the required concentration (non-surgical method of intratracheal injection of bleomycin into mouse lungs: the mice were anesthetized with isoflurane and suspended on a surgical stent at a 70° angle. Bleomycin was administered via intratracheal instillation using a 200 μl pipette).” left out
as §6
Statistical analysis: The results were statistically analyzed using Graphpad Prism 9.0 software for the experimental data of each group. […] The measurement data were expressed as mean #standard deviation (mean±SD). […]

[8] = tested on: mice with pulmonary fibrosis; assay: MASSON staining of lungs in bleomycin pulmonary fibrosis model (Experimental Example 2); type: in vivo, C57BL6J mice; conditions: FIG. 2; for collagen fibers / collagen deposition (MASSON staining): compared with the model group; for pathological changes in the lungs (MASSON staining): inhalation groups compared with model group, oral groups compared with inhalation groups
Source text: as §3
as §2, with “alcohol conventionally,” for “alcohol as usual,”, “paraffin,” for “paraffin, then serially”, “into 5 μm sections,” for “into sections (5 μm),”, “The pathological changes in the lungs” for “The sections”

[9] = 14th day compared to the 7th day after model establishment

Structure (SMILES): CCOc1cc([C@@H](CS(C)(=O)=O)N2C(=O)c3cccc(NC(C)=O)c3C2=O)ccc1OC [Comparative Example 1, apremilast]
- inflammatory cell infiltration (HE staining) [1]: a few inflammatory cell infiltrations
- alveolar structure (HE staining) [1]: improved the alveolar structure
- inflammatory cell infiltration (HE staining) [2]: a few inflammatory cell infiltrations
- alveolar structure (HE staining) [2]: improved alveolar structure
- collagen fibers / collagen deposition (MASSON staining) [3]: reduced collagen deposition
- lung damage / pathological changes (MASSON staining) [3]: slightly thickened alveolar interstitium and a few visible collagen fibers
- HYP content in the lungs (collagen deposition) [4]: slight downward trend, but this did not have statistical significance
- MDA content in the lungs (oxidative stress level) [4]: slight downward trend, but this did not have statistical significance
- weight recovery [5, 9]: significant weight recovery
- weight recovery ([5]; compared with the model group): significant weight recovery
- HYP content in the lungs (collagen deposition) [6]: slight tendency to alleviate MDA and HYP in the lungs, but the results were not statistically significant
- MDA content in the lungs (oxidative stress level) [6]: slight tendency to alleviate MDA and HYP in the lungs, but the results were not statistically significant
- weight recovery [7]: significant weight recovery
- collagen fibers / collagen deposition (MASSON staining) [8]: reduced collagen deposition
- pathological changes in the lungs (MASSON staining) [8]: slightly thickened alveolar interstitium and a few visible collagen fibers

Structure (SMILES): COC(=O)c1ccc2c(c1)NC(=O)/C2=C(\Nc1ccc(N(C)C(=O)CN2CCN(C)CC2)cc1)c1ccccc1 [Comparative Example 2, nintedanib]
- inflammatory cell infiltration (HE staining) [1]: a few inflammatory cell infiltrations
- alveolar structure (HE staining) [1]: improved the alveolar structure
- inflammatory cell infiltration (HE staining) [2]: a few inflammatory cell infiltrations
- alveolar structure (HE staining) [2]: improved alveolar structure
- collagen fibers / collagen deposition (MASSON staining) [3]: reduced collagen deposition
- lung damage / pathological changes (MASSON staining) [3]: slightly thickened alveolar interstitium and a few visible collagen fibers
- HYP content in the lungs (collagen deposition) [4]: slight downward trend, but this did not have statistical significance
- MDA content in the lungs (oxidative stress level) [4]: slight downward trend, but this did not have statistical significance
- weight recovery [5, 9]: did not show significant body recovery
- weight recovery ([5]; compared with the model group): no significant difference in weight recovery
- HYP content in the lungs (collagen deposition) [6]: slight tendency to alleviate MDA and HYP in the lungs, but the results were not statistically significant
- MDA content in the lungs (oxidative stress level) [6]: slight tendency to alleviate MDA and HYP in the lungs, but the results were not statistically significant
- weight recovery [7]: no significant difference in weight recovery
- collagen fibers / collagen deposition (MASSON staining) [8]: reduced collagen deposition
- pathological changes in the lungs (MASSON staining) [8]: slightly thickened alveolar interstitium and a few visible collagen fibers

Structure (SMILES): CCOc1ccccc1C(=O)NCc1coc(-c2ccc(OC(F)F)c(OC(C)C)c2)n1 [Comparative Example 4, difamilast]
- inflammatory cell infiltration (HE staining) [1]: a few inflammatory cell infiltrations
- alveolar structure (HE staining) [1]: improved the alveolar structure
- collagen fibers / collagen deposition (MASSON staining) [3]: reduced collagen deposition
- lung damage / pathological changes (MASSON staining) [3]: slightly thickened alveolar interstitium and a few visible collagen fibers
- HYP content in the lungs (collagen deposition) [4]: slight downward trend, but this did not have statistical significance
- MDA content in the lungs (oxidative stress level) [4]: slight downward trend, but this did not have statistical significance
- weight recovery [5, 9]: significant weight recovery
- weight recovery ([5]; compared with the model group): significant weight recovery
